For series [1] the following is noted: cited from earlier work.
Series [2] has as its target T1, S1P1 receptor (Homo sapiens, UniProt P21453). The conditions noted are these: cited from earlier work; for activity v/s degradation margin: known S1P receptor modulators; for receptor degradation ability: Lucas et al.
Another series concerns EAE. The experiment in a line: Animal model of multiple sclerosis (EAE induced with guinea pig MBP). It is filed as in vivo, Lewis rats. The conditions noted are these: EAE rats, oral every day until day 26. How it is done:
The oral treatment with a compound of formula (I) was conducted in an animal model of multiple sclerosis. EAE was induced in female Lewis rats with guinea pig MBP (25 μg/rat).

For series [3] the following is noted: single dose, 2 mg or lower doses; cited from earlier work.
Series [4] deals with T1, S1P1 receptor. The conditions noted are these: Lucas et al; read-out: EC50 at S1P1 receptor in a GTPγS assay; cited from earlier work.
Series [5] can be described thus: Solubility in water / precipitation in buffer. Format: physicochemical. As for the experimental part: To solubilize the free base in water the novel technology AvignaSOL (N,N-Dimethyl hexanamide; patent number: U.S. Pat. No. 9,186,338B2) and its higher derivatives such as octinamide, decamide which improve the absorption of various poorly soluble drugs was used. AvignaSOL as 1-70% ww % assisted the solubilization of free base as 1 gm/20 mL of water. The solubility of free base in water assisted its direct use in various formulation such as creams, gels, solutions which together with the permeation enhancing effect will be harnessed to improve skin penetration and/or bioavailability and in altering the pharmacokinetics and pharmacodynamics profile of free base.
The AvignaSOL having a log P of ˜1.6 hinder the release by increasing the hydrophobicity of the delivery system. […] The combination of compound of formula I with other ingredients including sustained release enhancer with or without AvignaSOL were prepared as novel formulation techniques to improve and/or alter the pharmacokinetics and pharmacodynamics profile of compound of Formula I.

Where only a bound is given, the exact number is not on record here.

T1 sequence (P21453 whole entry): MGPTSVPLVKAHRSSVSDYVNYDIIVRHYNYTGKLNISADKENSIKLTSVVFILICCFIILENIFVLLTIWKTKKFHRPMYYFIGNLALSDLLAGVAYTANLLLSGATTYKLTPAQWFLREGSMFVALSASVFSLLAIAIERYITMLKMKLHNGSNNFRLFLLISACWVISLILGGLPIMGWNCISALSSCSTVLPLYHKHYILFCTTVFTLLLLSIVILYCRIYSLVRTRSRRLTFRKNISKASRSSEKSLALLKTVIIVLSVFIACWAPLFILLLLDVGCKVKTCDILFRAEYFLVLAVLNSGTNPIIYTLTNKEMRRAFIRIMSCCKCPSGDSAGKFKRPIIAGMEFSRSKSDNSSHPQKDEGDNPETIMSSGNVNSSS

For `CCCCCC(=O)N(C)C` [AvignaSOL, N,N-Dimethyl hexanamide], in series [1], the log partition coefficient (log P) is listed as approximately 1.6.

As to `CCc1cc(/C(C)=N/OCc2ccc(C3CCCCC3)c(C(F)(F)F)c2)ccc1CN1CC(C(=O)O)C1` [BAF-312], the “activity v/s degradation margin” value at S1P1 receptor [2] is 2.95. For the compound `CCCCCCCCc1ccc(CCC(N)(CO)CO)cc1` [FTY720], on S1P1 receptor [2], the receptor degradation ability is 0.34 nM and the “activity v/s degradation margin” value is reported as 0.17. In addition, in the series with EAE, the lymphopenia result is listed as “induced at a high level over a long-term period”. As to `CC(C)Oc1ncc(-c2nc(-c3cccc4c3ccn4CCCC(=O)O)no2)cc1Cl` [GSK2018682], in series [3], the lymphopenia entry is “minimal or no lymphopenia” and the “reduction in heart rate” value is not below 10 beats. On to `CCC/N=C1\S/C(=C\c2ccc(OC[C@H](O)CO)c(Cl)c2)C(=O)N1c1ccccc1C` [Ponesimod], for which the “activity v/s degradation margin” value at S1P1 receptor [2] is less than 2. Take `CCCCCCCCCCCCC/C=C/[C@@H](O)[C@@H](N)COP(=O)(O)O` [S1P]: the receptor degradation ability at S1P1 receptor [2] was 302 nM. Also, the EC50 at S1P1 receptor [4] is 1.2 nM. Regarding `CCCOc1ccc(-c2nc(-c3ccc4oc(C(N)(CO)CO)cc4c3)no2)cc1Cl` [compound of formula I free base], in series [5], the solubility in water entry is “insoluble in water”.

As a reminder, the log P is a log measure of how a compound divides between an organic and an aqueous phase. For orientation: EC50 means the concentration giving half of the maximal effect.

Source of the values: patent publication US20230094545A1, “S1P RECEPTOR MODULATORS” (AKAAL PHARMA PTY LTD, priority 2020, published 2023).
